Experimental data published in PubChem BioAssay AID330 (DTP/NCI, 2004).
“And” between values parts separate entries of the source, which are not always exact repeats. Identical values can stand only once. Toxic doses and inconclusive results are not listed. The calls were made as follows: active = survival T/C of 150% or more; inactive = T/C below 125% in these data. Square brackets hold non-standard residues; d marks the D form. Peptide text beside a SMILES is read from it. * marks the point of attachment. ξ: configuration not given here. Cbz = O=C(OCc1ccccc1)*; ξP = O=C(O)C1CCCN1

Tested on: P388 leukemia ip, CD2F1 mice, survival T/C
Test: NCI In Vivo Anticancer Drug Screen. Data for tumor model P388 Leukemia (intraperitoneal) in CD2F1 (CDF1) mice
Conditions: endpoint: median survival time, higher = longer survival
Outline: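 Mice carrying the transplanted tumor received test compound or vehicle. Survival was recorded in each group, and the value is the treated-group measurement divided by that of the vehicle-treated control group.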

[1] = dose: 12.5 mg/kg/injection, schedule: Q01DX009 (ip), vehicle: saline
[2] = dose: 100.0 mg/kg/injection, schedule: Q04DX003 (ip), vehicle: saline with Tween-80
[3] = dose: 100.0 mg/kg/injection, schedule: Q04DX002 (ip), vehicle: saline with Tween-80
[4] = dose: 200.0 mg/kg/injection, schedule: Q04DX002 (ip), vehicle: saline with Tween-80
[5] = dose: 50.0 mg/kg/injection, schedule: Q01DX009 (ip), vehicle: saline with Tween-80
[6] = dose: 100.0 mg/kg/injection, schedule: Q01DX009 (ip), vehicle: saline with Tween-80
[7] = dose: 200.0 mg/kg/injection, schedule: Q01DX009 (ip), vehicle: saline with Tween-80
[8] = dose: 100.0 mg/kg/injection, schedule: Q04DX003 (ip), vehicle: saline
[9] = dose: 200.0 mg/kg/injection, schedule: Q04DX003 (ip), vehicle: saline
[10] = dose: 400.0 mg/kg/injection, schedule: Q04DX003 (ip), vehicle: saline
[11] = dose: 50.0 mg/kg/injection, schedule: Q01DX005 (ip), vehicle: saline
[12] = dose: 100.0 mg/kg/injection, schedule: Q01DX005 (ip), vehicle: saline
[13] = dose: 200.0 mg/kg/injection, schedule: Q01DX005 (ip), vehicle: saline
[14] = dose: 50.0 mg/kg/injection, schedule: Q01DX009 (ip), vehicle: saline
[15] = dose: 50.0 mg/kg/injection, schedule: Q01DX005 (ip), vehicle: Klucel (hydroxypropylcellulose) (HPC)
[16] = dose: 100.0 mg/kg/injection, schedule: Q01DX005 (ip), vehicle: Klucel (hydroxypropylcellulose) (HPC)
[17] = dose: 6.25 mg/kg/injection, schedule: Q01DX009 (ip), vehicle: Klucel (hydroxypropylcellulose) (HPC)

Measured: T/C

COC(=O)/C=N/Nc1ccc(C)cc1
inactive: dose: 25.0 mg/kg/injection, schedule: Q01DX009 (ip), vehicle: other 89 % of control | dose: 50.0 mg/kg/injection, schedule: Q01DX009 (ip), vehicle: other 86 % of control | dose: 100.0 mg/kg/injection, schedule: Q01DX009 (ip), vehicle: other 96 % of control | dose: 200.0 mg/kg/injection, schedule: Q01DX009 (ip), vehicle: other 103 % of control | dose: 400.0 mg/kg/injection, schedule: Q01DX009 (ip), vehicle: other 108 % of control

O=C[O-].[NH2-].[NH2-].[NH2-].[NH2-].[NH2-].[O-][Cl+3]([O-])([O-])O.[Ru+8]
inactive: dose: 1.56 mg/kg/injection, schedule: Q04DX003 (ip), vehicle: saline 105 % of control | dose: 3.13 mg/kg/injection, schedule: Q04DX003 (ip), vehicle: saline 104 % of control | dose: 6.25 mg/kg/injection, schedule: Q04DX003 (ip), vehicle: saline 124 % of control

COc1ccc(CC2=CC(=O)C(=O)C=C2C)cc1
inactive: dose: 2.5 mg/kg/injection, schedule: Q01DX009 (ip), vehicle: saline + alcohol 101 % of control | dose: 5.0 mg/kg/injection, schedule: Q01DX009 (ip), vehicle: saline + alcohol 100 % of control | dose: 10.0 mg/kg/injection, schedule: Q01DX009 (ip), vehicle: saline + alcohol 102 % of control

O=C(O)CNC(=O)C1CCCN1C(=O)OCc1ccccc1 (stereo not drawn) (Cbz-[ξP]-Gly-OH)
inactive: dose: 50.0 mg/kg/injection, schedule: Q01DX005 (ip), vehicle: saline with Tween-80 100 % of control | dose: 100.0 mg/kg/injection, schedule: Q01DX005 (ip), vehicle: saline with Tween-80 91 % of control | dose: 200.0 mg/kg/injection, schedule: Q01DX005 (ip), vehicle: saline with Tween-80 91 % of control

CCCCCCN(CCCCCC)P(=O)(N1CC1)N1CC1
inactive: [1] 118 % of control | dose: 25.0 mg/kg/injection, schedule: Q04DX003 (ip), vehicle: saline with Tween-80 113 % of control | [2] 100 % of control

O=C1c2ccccc2C(=O)c2c(Nc3cccc(S(=O)(=O)N(CCO)CCO)c3)ccc(O)c21
inactive: dose: 25.0 mg/kg/injection, schedule: Q04DX002 (ip), vehicle: saline with Tween-80 99 % of control | dose: 50.0 mg/kg/injection, schedule: Q04DX002 (ip), vehicle: saline with Tween-80 93 % of control | [3] 92 % of control | [4] 93 % of control

Clc1ccccc1N=NN1CCN(c2ccccc2)CC1
inactive: [5] 88 % of control | [6] 102 % of control | [7] 93 % of control

[O-][n+]1cc2ccccc2c2ccccc21
inactive: [8] 100 % of control | [9] 100 % of control | [10] 99 % of control

CC1CN(C(C)(C)C)CO1 (stereo not drawn)
inactive: dose: 12.5 mg/kg/injection, schedule: Q01DX005 (ip), vehicle: saline 112 % of control and 88 % of control | dose: 25.0 mg/kg/injection, schedule: Q01DX005 (ip), vehicle: saline 107 % of control | [11] 114 % of control and 117 % of control and 119 % of control | [12] 119 % of control and 120 % of control | [13] 107 % of control

CC(=O)NCC[N+](C)(C)C
inactive: [1] 100 % of control | dose: 25.0 mg/kg/injection, schedule: Q01DX009 (ip), vehicle: saline 108 % of control | [14] 99 % of control

COc1ccc(C(c2cc(C(C)(C)C)c(O)c(C(C)(C)C)c2)n2ccnc2)cc1 (stereo not drawn)
inactive: dose: 50.0 mg/kg/injection, schedule: Q01DX005 (ip), vehicle: distilled water + alcohol 105 % of control | dose: 100.0 mg/kg/injection, schedule: Q01DX005 (ip), vehicle: distilled water + alcohol 103 % of control | dose: 200.0 mg/kg/injection, schedule: Q01DX005 (ip), vehicle: distilled water + alcohol 99 % of control

C1CN2CCN1CC2.[Cl][Pt]([Cl])[Cl]
inactive: [3] 117 % of control | [4] 117 % of control

O=C1OC(=O)C2C3OC(C(Br)C3Br)C12 (stereo not drawn)
inactive: [15] 102 % of control | [16] 98 % of control

C[N+](C)(C)Cc1ccccc1
inactive: dose: 3.13 mg/kg/injection, schedule: Q01DX009 (ip), vehicle: saline with Tween-80 100 % of control | dose: 3.13 mg/kg/injection, schedule: Q01DX009 (ip), vehicle: saline 99 % of control | [17] 95 % of control | dose: 6.25 mg/kg/injection, schedule: Q01DX009 (ip), vehicle: saline with Tween-80 100 % of control | dose: 6.25 mg/kg/injection, schedule: Q01DX009 (ip), vehicle: saline 94 % of control | dose: 12.5 mg/kg/injection, schedule: Q01DX009 (ip), vehicle: Klucel (hydroxypropylcellulose) (HPC) 93 % of control | dose: 12.5 mg/kg/injection, schedule: Q01DX009 (ip), vehicle: saline with Tween-80 100 % of control | [1] 96 % of control | dose: 25.0 mg/kg/injection, schedule: Q01DX009 (ip), vehicle: Klucel (hydroxypropylcellulose) (HPC) 99 % of control

Brc1ccc(N=Cc2cccs2)cc1
inactive: [8] 100 % of control | [9] 99 % of control | [10] 98 % of control

CC1(O)CCC(O)CC1CC[N+](C)(C)[O-] (stereo not drawn)
inactive: [11] 102 % of control | [12] 99 % of control | [13] 102 % of control

COc1cc(/C=C(\Cc2ccc(OC)c(OCc3ccccc3)c2)[N+](=O)[O-])ccc1OCc1ccccc1
inactive: dose: 50.0 mg/kg/injection, schedule: Q01DX009 (ip), vehicle: Klucel (hydroxypropylcellulose) (HPC) 89 % of control | dose: 100.0 mg/kg/injection, schedule: Q01DX009 (ip), vehicle: Klucel (hydroxypropylcellulose) (HPC) 87 % of control | dose: 200.0 mg/kg/injection, schedule: Q01DX009 (ip), vehicle: Klucel (hydroxypropylcellulose) (HPC) 88 % of control

CC1(C)c2ccccc2-c2nc3ccccc3cc2C1O (stereo not drawn)
inactive: dose: 25.0 mg/kg/injection, schedule: Q01DX001 (ip), vehicle: saline 96 % of control | dose: 50.0 mg/kg/injection, schedule: Q01DX001 (ip), vehicle: saline 103 % of control | dose: 100.0 mg/kg/injection, schedule: Q01DX001 (ip), vehicle: saline 101 % of control | dose: 200.0 mg/kg/injection, schedule: Q01DX001 (ip), vehicle: saline 103 % of control

CCN(CC)CCNc1ccc(C)c2sc3ccccc3c(=O)c12 (tested in a mixture with another compound)
active: [14] 160 % of control | dose: 100.0 mg/kg/injection, schedule: Q01DX009 (ip), vehicle: saline 185 % of control | [9] 161 % of control
inactive: dose: 300.0 mg/kg/injection, schedule: Q04DX003 (ip), vehicle: saline 95 % of control

O=C(O)c1cc(Nc2nc(Cl)nc(Cl)n2)ccc1-c1c2ccc(=O)cc-2oc2cc(O)ccc12
inactive: dose: 60.0 mg/kg/injection, schedule: Q01DX005 (ip), vehicle: saline with Tween-80 115 % of control | dose: 120.0 mg/kg/injection, schedule: Q01DX005 (ip), vehicle: saline with Tween-80 119 % of control | dose: 240.0 mg/kg/injection, schedule: Q01DX005 (ip), vehicle: saline with Tween-80 117 % of control

Nc1ccc(S(=O)(=O)c2ccc(NCC(=O)O)cc2)cc1
inactive: [5] 100 % of control | dose: 50.0 mg/kg/injection, schedule: Q04DX003 (ip), vehicle: saline with Tween-80 100 % of control | [6] 95 % of control | [2] 100 % of control | [7] 86 % of control | dose: 200.0 mg/kg/injection, schedule: Q04DX003 (ip), vehicle: saline with Tween-80 100 % of control

C[N+](C)(CCCCCCOc1c(Br)cc(Br)cc1Br)Cc1ccc(Br)o1
inactive: dose: 1.56 mg/kg/injection, schedule: Q01DX009 (ip), vehicle: Klucel (hydroxypropylcellulose) (HPC) 104 % of control | dose: 3.12 mg/kg/injection, schedule: Q01DX009 (ip), vehicle: Klucel (hydroxypropylcellulose) (HPC) 113 % of control | [17] 93 % of control

CC1C(=O)OC2CC34C5CC(C(C)(C)C)C36C(OC(=O)C6O)OC4(C(=O)O5)C21O (stereo not drawn)
inactive: [15] 100 % of control | [16] 100 % of control | dose: 200.0 mg/kg/injection, schedule: Q01DX005 (ip), vehicle: Klucel (hydroxypropylcellulose) (HPC) 92 % of control
